In test [1] the target is T1, DDR1 (Homo sapiens, UniProt Q08345).
T1 construct: purchased Reaction Biology
Nature of the test: HotSpot radiometric kinase assay (Reaction Biology), DDR1. The format is biochemical. The note with it: 200 nM kinase, substrate IRS1tide 20 μM, 33P-ATP, 120 minutes at room temperature. On the procedure: (§1) The compounds were profiled in the HotSpot radiometric assays (Reaction Biology).
Briefly, • 1. Substrate indicated in Table 1 was dissolved in freshly prepared reaction buffer (20 mM HEPES (pH 7.5), 10 mM MgCl2, 1 mM EGTA, 0.01% Brij35, 0.02 mg/ml BSA, 0.1 mM Na3VO4, 2 mM DTT, 1% DMSO) at the concentration indicated in Table 1. • 2. Corresponding kinase (concentration indicated in Table 1) was added and the mixture was gently mixed. • 3. Tested compound dissolved in DMSO was added into the kinase reaction mixture. • 4. ^33P-ATP (specific activity 0.01 μCi/μL final) was added into the reaction mixture to initiate the reaction. • 5. The kinase reaction was incubated for 120 minutes at room temperature. • 6. […] The radioactive phosphorylated substrate remaining on the filter paper was measured.
(§2) Kinase activity data were expressed as the percent remaining kinase activity in tested samples compared to the vehicle (DMSO) reactions. IC50 values and curve fits were obtained using Prism4 Software (GraphPad).

Test [2] has as its target T2, FLT3 (Homo sapiens, UniProt P36888).
T2 construct: purchased Reaction Biology
T2 sequence (P36888 27-993): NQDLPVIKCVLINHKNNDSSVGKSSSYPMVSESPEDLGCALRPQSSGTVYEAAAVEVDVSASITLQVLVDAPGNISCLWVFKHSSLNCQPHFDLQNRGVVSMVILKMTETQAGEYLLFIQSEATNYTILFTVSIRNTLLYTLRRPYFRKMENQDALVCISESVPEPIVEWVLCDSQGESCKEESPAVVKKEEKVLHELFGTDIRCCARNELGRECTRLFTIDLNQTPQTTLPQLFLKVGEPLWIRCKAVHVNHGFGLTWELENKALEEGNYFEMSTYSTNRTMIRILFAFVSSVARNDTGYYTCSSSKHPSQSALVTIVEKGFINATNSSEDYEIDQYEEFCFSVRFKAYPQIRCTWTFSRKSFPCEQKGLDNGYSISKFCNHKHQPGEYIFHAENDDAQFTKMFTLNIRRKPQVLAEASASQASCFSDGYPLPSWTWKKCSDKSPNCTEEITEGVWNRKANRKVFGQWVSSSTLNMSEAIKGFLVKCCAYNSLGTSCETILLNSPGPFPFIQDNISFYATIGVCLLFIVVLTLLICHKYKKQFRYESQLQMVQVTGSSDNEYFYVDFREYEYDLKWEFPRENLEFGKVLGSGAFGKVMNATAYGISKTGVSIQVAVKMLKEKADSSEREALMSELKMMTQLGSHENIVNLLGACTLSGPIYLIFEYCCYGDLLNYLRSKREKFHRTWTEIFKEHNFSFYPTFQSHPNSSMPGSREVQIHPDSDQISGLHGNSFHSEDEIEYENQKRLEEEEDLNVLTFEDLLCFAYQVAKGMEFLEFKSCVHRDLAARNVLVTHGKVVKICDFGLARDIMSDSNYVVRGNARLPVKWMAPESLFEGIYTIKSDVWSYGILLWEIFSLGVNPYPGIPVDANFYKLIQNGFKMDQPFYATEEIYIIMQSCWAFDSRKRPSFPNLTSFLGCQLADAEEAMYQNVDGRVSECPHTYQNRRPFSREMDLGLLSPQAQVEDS
Nature of the test: HotSpot radiometric kinase assay (Reaction Biology), FLT3. The format is biochemical. The note with it: 4 nM kinase, substrate ABLtide 20 μM, 33P-ATP, 120 minutes at room temperature. On the procedure: as §1
Briefly, • 1. Substrate indicated in Table 1 was dissolved in freshly prepared reaction buffer (20 mM HEPES (pH 7.5), 10 mM MgCl2, 1 mM EGTA, 0.01% Brij35, 0.02 mg/ml BSA, 0.1 mM Na3VO4, 2 mM DTT, 1% DMSO) at the concentration indicated in Table 1. • 2. Corresponding kinase (concentration indicated in Table 1) was added and the mixture was gently mixed. • 3. Tested compound dissolved in DMSO was added into the kinase reaction mixture. • 4. ^33P-ATP (specific activity 0.01 μCi/μL final) was added into the reaction mixture to initiate the reaction. • 5. The kinase reaction was incubated for 120 minutes at room temperature. • 6. Reaction mixture was spotted onto P81 ion exchange paper (Whatman K 3698-915). • 7. The filters were extensively washed with […]. • 7. The radioactive phosphorylated substrate remaining on the filter paper was measured.
as §2
Table 2 summarizes the inhibitory activities of indicated compounds tested in the in vitro kinase assays described above.

T1 sequence (Q08345 19-913): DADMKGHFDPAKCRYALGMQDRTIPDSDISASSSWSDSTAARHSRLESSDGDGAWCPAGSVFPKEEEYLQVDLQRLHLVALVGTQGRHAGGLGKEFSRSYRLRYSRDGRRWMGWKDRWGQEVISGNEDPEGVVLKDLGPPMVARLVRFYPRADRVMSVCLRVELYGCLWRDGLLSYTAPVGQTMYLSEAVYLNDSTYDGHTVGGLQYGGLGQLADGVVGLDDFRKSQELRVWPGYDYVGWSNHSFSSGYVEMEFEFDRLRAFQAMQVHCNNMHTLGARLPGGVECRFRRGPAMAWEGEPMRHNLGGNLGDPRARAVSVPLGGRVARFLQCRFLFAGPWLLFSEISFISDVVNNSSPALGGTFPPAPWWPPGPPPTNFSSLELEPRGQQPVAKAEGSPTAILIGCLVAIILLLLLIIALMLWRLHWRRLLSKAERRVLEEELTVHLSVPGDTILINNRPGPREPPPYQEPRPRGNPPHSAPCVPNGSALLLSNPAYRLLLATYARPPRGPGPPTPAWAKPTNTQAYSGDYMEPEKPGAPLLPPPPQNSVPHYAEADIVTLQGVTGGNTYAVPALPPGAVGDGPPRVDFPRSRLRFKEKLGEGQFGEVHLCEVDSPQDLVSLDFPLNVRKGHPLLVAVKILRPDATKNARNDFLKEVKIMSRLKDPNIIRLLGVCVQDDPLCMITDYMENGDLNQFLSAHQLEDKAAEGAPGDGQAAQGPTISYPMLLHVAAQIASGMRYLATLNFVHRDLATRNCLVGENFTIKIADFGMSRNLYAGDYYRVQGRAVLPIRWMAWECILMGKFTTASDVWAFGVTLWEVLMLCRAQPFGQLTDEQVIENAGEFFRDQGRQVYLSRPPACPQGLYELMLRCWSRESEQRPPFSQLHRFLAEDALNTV

In general, IC50 refers to the concentration at which inhibition is half-maximal. For the molecule `c1cc(-c2coc3cc(-c4ccc(OCCN5CCCCC5)cc4)cnc23)ccn1` [Preparative Example 171, 6-(4-(2-(piperidin-1-yl)ethoxy)phenyl)-3-(pyridin-4-yl)furo[3,2-b]pyridine], the half-inhibitory concentration (IC50) in test [1] worked out at 0.365 µM; in test [2], 0.021 µM.
Consider `CCNC(=O)Cc1cccc(-c2coc3cc(-c4ccc(N5CCNCC5)cc4)cnc23)c1` [Preparative Example 152, N-ethyl-2-(3-(6-(4-(piperazin-1-yl)phenyl)furo[3,2-b]pyridin-3-yl)phenyl)acetamide], for which the IC50 in test [1] was 0.073 µM; in test [2] it was 0.024 µM.
For `CCOC(=O)Nc1cccc(-c2coc3cc(-c4ccc(N5CCN(C)CC5)cc4)cnc23)c1` [Preparative Example 83, ethyl (3-(6-(4-(4-methylpiperazin-1-yl)phenyl)furo[3,2-b]pyridin-3-yl)phenyl)carbamate] the same measures were 0.622 µM and 0.099 µM.
For `CC(=O)NCc1cccc(-c2coc3cc(-c4ccc(N5CCN(C)CC5)cc4)cnc23)c1` [Preparative Example 137, N-(3-(6-(4-(4-methylpiperazin-1-yl)phenyl)furo[3,2-b]pyridin-3-yl)benzyl)acetamide] the same measures were 0.206 µM and 0.078 µM.
In the same order, the values of `CN1CCN(c2ccc(-c3cnc4c(-c5ccc(C#N)cc5)coc4c3)cc2)CC1` [Preparative Example 257, 4-(6-(4-(4-methylpiperazin-1-yl)phenyl)furo[3,2-b]pyridin-3-yl)benzonitrile] are 0.2 µM and 0.028 µM.
As for `Cc1c(-c2ccc(N3CCN(C)CC3)cc2)cnc2c(-c3ccccc3)coc12` [Preparative Example 188, 7-methyl-6-(4-(4-methylpiperazin-1-yl)phenyl)-3-phenylfuro[3,2-b]pyridine], the IC50 in test [1] amounted to 0.186 µM; in test [2], 0.147 µM.
In the same order, the values of `COc1ccc(-c2coc3cc(-c4ccc(N5CCN(C)CC5)cc4)cnc23)cc1` [Preparative Example 255, 3-(4-methoxyphenyl)-6-(4-(4-methylpiperazin-1-yl)phenyl)furo[3,2-b]pyridine] are 0.191 µM and 0.141 µM.
In the same order, the values of `O=[N+]([O-])c1cccc(-c2coc3cc(-c4ccc(N5CCNCC5)cc4)cnc23)c1` [Preparative Example 40, 3-(3-nitrophenyl)-6-(4-(piperazin-1-yl)phenyl)furo[3,2-b]pyridine] are 0.098 µM and 0.142 µM.
In the same order, the values of `CN1CCN(c2ccc(-c3cnc4c(-c5cccc(CC(N)=O)c5)coc4c3)cc2)CC1` [Preparative Example 154, 2-(3-(6-(4-(4-methylpiperazin-1-yl)phenyl)furo[3,2-b]pyridin-3-yl)phenyl)acetamide] are 0.157 µM and 0.022 µM.
Regarding `CN1CCN(c2ccc(-c3cnc4c(-c5ccccc5)coc4c3)cc2)CC1` [Preparative Example 172, 6-(4-(4-methylpiperazin-1-yl)phenyl)-3-phenylfuro[3,2-b]pyridine], the IC50 in test [1] was found to be 0.141 µM; in test [2], 0.033 µM.
Turning to `FC(F)(F)COc1cccc(-c2coc3cc(-c4ccc(N5CCNCC5)cc4)cnc23)c1` [Preparative Example 116, 6-(4-(piperazin-1-yl)phenyl)-3-(3-(2,2,2-trifluoroethoxy)phenyl)furo[3,2-b]pyridine], the IC50 in test [1] was found to be 0.673 µM; in test [2], 0.353 µM.
Regarding `CN1CCN(c2ccc(-c3cnc4c(-c5ccncc5)coc4c3)cc2)CC1` [Preparative Example 58, 6-(4-(4-methylpiperazin-1-yl)phenyl)-3-(pyridin-4-yl)furo[3,2-b]pyridine], the concentration for half-maximal inhibition (IC50) in test [1] turned out to be 0.364 µM; in test [2], 0.031 µM.
For `c1ccc(Oc2cccc(-c3coc4cc(-c5ccc(N6CCNCC6)cc5)cnc34)c2)cc1` [Preparative Example 104, 3-(3-phenoxyphenyl)-6-(4-(piperazin-1-yl)phenyl)furo[3,2-b]pyridine] the same measures were 0.252 µM and 0.121 µM.
In the same order, the values of `N#Cc1cccc(-c2coc3cc(-c4ccc(N5CCNCC5)cc4)cnc23)c1` [Preparative Example 20, 3-(6-(4-(piperazin-1-yl)phenyl)furo[3,2-b]pyridin-3-yl)benzonitrile] are 0.16 µM and 0.09 µM.
For `CN1CCN(c2ccc(Nc3cnc4c(-c5ccccc5)coc4c3)cc2)CC1` [Preparative Example 101, N-(4-(4-methylpiperazin-1-yl)phenyl)-3-phenylfuro[3,2-b]pyridin-6-amine] the same measures were 0.347 µM and 0.146 µM.
With `CN(C)c1cccc(-c2coc3cc(-c4ccc(N5CCNCC5)cc4)cnc23)c1` [Preparative Example 131, N,N-dimethyl-3-(6-(4-(piperazin-1-yl)phenyl)furo[3,2-b]pyridin-3-yl)aniline], the IC50 is 0.385 µM in test [1] and 0.345 µM in test [2].
In the same order, the values of `CN1CCN(c2ccc(-c3cnc4c(-c5cccc(C(=O)c6ccccc6)c5)coc4c3)cc2)CC1` [Preparative Example 133, (3-(6-(4-(4-methylpiperazin-1-yl)phenyl)furo[3,2-b]pyridin-3-yl)phenyl)(phenyl)methanone] are 0.472 µM and 0.269 µM.
In the same order, the values of `CN1CCN(c2ccc(-c3cnc4c(-c5ccccc5)c(-c5ccncc5)oc4c3)cc2)CC1` [Preparative Example 223, 1-methyl-4-{4-[3-phenyl-2-(pyridin-4-yl)furo[3,2-b]pyridin-6-yl]phenyl}piperazine] are 0.07 µM and 0.269 µM.
On to `CC(=O)c1cc(-c2coc3cc(-c4ccc(N5CCN(C)CC5)cc4)cnc23)ccn1` [Preparative Example 156, 1-(4-(6-(4-(4-methylpiperazin-1-yl)phenyl)furo[3,2-b]pyridin-3-yl)pyridin-2-yl)ethan-1-one], for which the IC50 in test [1] was 0.734 µM; in test [2] it was 0.046 µM.
For `CCCc1oc2cc(-c3ccc(N4CCN(C)CC4)cc3)cnc2c1-c1ccccc1` [Preparative Example 200, 1-methyl-4-(4-{3-phenyl-2-propylfuro[3,2-b]pyridin-6-yl}phenyl)piperazine] the same measures were 0.079 µM and 0.362 µM.
Turning to `NS(=O)(=O)c1cccc(-c2coc3cc(-c4ccc(N5CCNCC5)cc4)cnc23)c1` [Preparative Example 64, 3-(6-(4-(piperazin-1-yl)phenyl)furo[3,2-b]pyridin-3-yl)benzenesulfonamide], the IC50 was 0.134 µM in test [1] and 0.026 µM in test [2].
In the same order, the values of `Cc1nn(C)cc1-c1coc2cc(-c3ccc(N4CCN(C)CC4)cc3)cnc12` [Preparative Example 216, 1-{4-[3-(1,3-dimethyl-1H-pyrazol-4-yl)furo[3,2-b]pyridin-6-yl]phenyl}-4-methylpiperazine] are 0.367 µM and 0.224 µM.
For `CN1CCN(c2ccc(-c3cnc4c(Cc5ccccc5)coc4c3)cc2)CC1` [Preparative Example 186, 3-benzyl-6-(4-(4-methylpiperazin-1-yl)phenyl)furo[3,2-b]pyridine] the same measures were 0.62 µM and 0.373 µM.
